From patent publication US20240059671A1, “TYROSINE KINASE 2 (TYK2) DEGRADATION COMPOUNDS AND METHODS OF USE” (CULLGEN (SHANGHAI), INC., priority 2020, published 2024)
Entries after “also recorded” stand apart in the source; their conditions may differ.

Experiments:
Assay type in all cases: cell-based
JAK1, JAK2, and JAK3 = assay: Immunoblot of JAK1/2/3 protein levels in MOLT-4 cells (selectivity of TYK2 reduction); details: MOLT-4 cells, 0.04, 0.2, 1, and 5 μM, 24 hours
Procedure: MOLT-4 cells were treated with CPD-038, CPD-039, and CPD-040 at 0.04, 0.2, 1, and 5 μM concentrations for 24 hours.
Rabbit anti-JAK1antibody (3344S), anti-JAK2 antibody (3230S), anti-JAK3 antibody (8827S), anti-TYK2 antibody (14193S), anti-STAT1 antibody (9167S), anti-STAT3 antibody (9139S), anti-phospho-STAT1 (Tyr701) antibody ([…]), anti-phospho-STAT3 (Tyr705) antibody (9145S), were purchased from Cell Signaling Technology; anti-β-actin antibody (ab8226) was from Abeam; HRP-conjugated anti-α-Tubulin (GNI4310-AT) antibody was purchased from GNI. Media and other cell culture reagents were purchased from Thermo Fisher.
Cultured cells were washed with cold PBS once and lysed in cold RIPA buffer supplemented with protease inhibitors and phosphatase inhibitors (Beyotime Biotechnology). The solutions were then incubated at 4° C. for 30 minutes with gentle agitation to fully lyse cells. Cell lysates were centrifuged at 13,000 rpm for 10 minutes at 4° C. and pellets were discarded. Total protein concentrations in the lysates were determined by BCA assays (Beyotime Biotechnology). Cell lysates were mixed with Laemmli loading buffer to 1× and heated at 99° C. for 5 min. Proteins were resolved on SDS-PAGE and visualized by chemiluminescence. Images were taken by a ChemiDoc MP Imaging system (Bio-Rad). Protein bands were quantitated using the accompanied software provided by Bio-Rad.

TYK2 [1] = molecular target: T1, TYK2 (Homo sapiens, UniProt P29597); assay: TYK2 protein degradation in MOLT-4 cells by immunoblotting; set-up: endogenous in cells; host or cells: MOLT-4; details: 24 hours; for TYK2 Degradation (0.5 μM) / TYK2 Degradation (5 μM): MOLT-4 cells; for Reduction of TYK2 protein levels over a dose range (FIG. 1): MOLT-4 cells, 0.04, 0.2, 1, and 5 μM
T1 sequence (P29597 whole entry): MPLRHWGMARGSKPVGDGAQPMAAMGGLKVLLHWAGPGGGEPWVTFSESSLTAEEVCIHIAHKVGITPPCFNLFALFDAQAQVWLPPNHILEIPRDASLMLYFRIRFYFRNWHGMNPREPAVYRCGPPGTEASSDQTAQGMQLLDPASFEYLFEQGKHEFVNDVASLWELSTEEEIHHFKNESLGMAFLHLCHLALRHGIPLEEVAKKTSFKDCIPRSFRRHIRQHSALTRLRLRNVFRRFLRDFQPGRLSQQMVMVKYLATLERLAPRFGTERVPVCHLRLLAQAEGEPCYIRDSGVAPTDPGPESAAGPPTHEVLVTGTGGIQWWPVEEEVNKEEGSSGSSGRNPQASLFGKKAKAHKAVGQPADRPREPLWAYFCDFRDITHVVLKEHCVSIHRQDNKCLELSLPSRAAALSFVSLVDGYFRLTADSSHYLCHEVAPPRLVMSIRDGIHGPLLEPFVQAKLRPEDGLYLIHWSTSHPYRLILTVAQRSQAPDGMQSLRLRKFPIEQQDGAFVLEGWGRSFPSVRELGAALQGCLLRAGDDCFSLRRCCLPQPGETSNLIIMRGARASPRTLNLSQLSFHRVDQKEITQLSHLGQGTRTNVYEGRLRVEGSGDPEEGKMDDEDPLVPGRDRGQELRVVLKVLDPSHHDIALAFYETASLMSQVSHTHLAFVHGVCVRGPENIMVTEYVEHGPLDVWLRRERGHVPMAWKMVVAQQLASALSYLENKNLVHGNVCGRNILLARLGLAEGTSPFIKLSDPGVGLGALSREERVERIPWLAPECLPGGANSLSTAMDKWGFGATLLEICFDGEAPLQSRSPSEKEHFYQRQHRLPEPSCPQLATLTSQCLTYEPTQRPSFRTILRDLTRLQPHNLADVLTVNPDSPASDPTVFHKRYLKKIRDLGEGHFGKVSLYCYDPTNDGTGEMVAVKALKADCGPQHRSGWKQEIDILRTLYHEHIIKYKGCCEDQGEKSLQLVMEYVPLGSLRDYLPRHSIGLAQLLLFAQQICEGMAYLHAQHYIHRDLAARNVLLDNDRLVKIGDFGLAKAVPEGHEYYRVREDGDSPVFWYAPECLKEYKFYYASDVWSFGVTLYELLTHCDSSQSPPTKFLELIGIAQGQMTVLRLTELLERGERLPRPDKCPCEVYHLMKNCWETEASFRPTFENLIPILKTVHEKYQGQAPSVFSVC
Method in brief: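 MOLT-4 cells were exposed to compounds at 0.5 and 5 μM for 24 h, then lysed in RIPA buffer with protease and phosphatase inhibitors. TYK2 was detected by SDS-PAGE immunoblot with chemiluminescence, and band densitometry gave percent degradation.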

TYK2 [2] = molecular target: T1, TYK2; assay: TYK2 protein degradation in NOMO-1 cells by immunoblotting; set-up: endogenous in cells; details: NOMO-1 cells
Method in brief: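 NOMO-1 cells in RPMI 1640 with 10% FBS were exposed to compound at 0.1–1000 nM for 16 hours. TYK2 levels in RIPA lysates were measured by SDS-PAGE immunoblot with chemiluminescent detection and band densitometry.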

TYK2 Degradation (NOMO-1, 10 nM) (TYK2 [2])	TYK2 Degradation (NOMO-1, 100 nM) (TYK2 [2])	Compound	further results
–	C (C: ≤20% TYK2 degradation)	CNC(=O)c1nnc(Nc2ccc(C(=O)NCCCCNc3ccc4c(c3)C(=O)N(C3CCC(=O)NC3=O)C4=O)cn2)cc1Nc1cccc(-c2ncn(C)n2)c1OC (stereo not shown) [CPD-163, 6-((5-((4-((2-(2,6-dioxopiperidin-3-yl)-1,3-dioxoisoindolin-5-yl)amino)butyl)carbamoyl)pyridin-2-yl)amino)-4-((2-methoxy-3-(1-methyl-1H-1,2,4-triazol-3-yl)phenyl)amino)-N-methylpyridazine-3-carboxamide]	–
C (C: ≤20% TYK2 degradation)	C (C: ≤20% TYK2 degradation)	CNC(=O)c1nnc(Nc2ccc(C(=O)NCCCCCCNc3ccc4c(c3)C(=O)N(C3CCC(=O)NC3=O)C4=O)cn2)cc1Nc1cccc(-c2ncn(C)n2)c1OC (stereo not shown) [CPD-165, 6-((5-((6-((2-(2,6-dioxopiperidin-3-yl)-1,3-dioxoisoindolin-5-yl)amino)hexyl)carbamoyl)pyridin-2-yl)amino)-4-((2-methoxy-3-(1-methyl-1H-1,2,4-triazol-3-yl)phenyl)amino)-N-methylpyridazine-3-carboxamide]	–
–	C (C: ≤20% TYK2 degradation)	CNC(=O)c1nnc(Nc2ccc(C(=O)NCCCCCCCNc3ccc4c(c3)C(=O)N(C3CCC(=O)NC3=O)C4=O)cn2)cc1Nc1cccc(-c2ncn(C)n2)c1OC (stereo not shown) [CPD-166, 6-((5-((7-((2-(2,6-dioxopiperidin-3-yl)-1,3-dioxoisoindolin-5-yl)amino)heptyl)carbamoyl)pyridin-2-yl)amino)-4-((2-methoxy-3-(1-methyl-1H-1,2,4-triazol-3-yl)phenyl)amino)-N-methylpyridazine-3-carboxamide]	–
A (A: ≥60% TYK2 degradation)	C (C: ≤20% TYK2 degradation)	CNC(=O)c1nnc(Nc2ccc(C(=O)NCCCCCCCCNc3ccc4c(c3)C(=O)N(C3CCC(=O)NC3=O)C4=O)cn2)cc1Nc1cccc(-c2ncn(C)n2)c1OC (stereo not shown) [CPD-167, 6-((5-((8-((2-(2,6-dioxopiperidin-3-yl)-1,3-dioxoisoindolin-5-yl)amino)octyl)carbamoyl)pyridin-2-yl)amino)-4-((2-methoxy-3-(1-methyl-1H-1,2,4-triazol-3-yl)phenyl)amino)-N-methylpyridazine-3-carboxamide]	–
–	C (C: ≤20% TYK2 degradation)	CNC(=O)c1nnc(Nc2ccc(C(=O)NCCOCCNc3ccc4c(c3)C(=O)N(C3CCC(=O)NC3=O)C4=O)cn2)cc1Nc1cccc(-c2ncn(C)n2)c1OC (stereo not shown) [CPD-168, 6-((5-((2-(2-((2-(2,6-dioxopiperidin-3-yl)-1,3-dioxoisoindolin-5-yl)amino)ethoxy)ethyl)carbamoyl)pyridin-2-yl)amino)-4-((2-methoxy-3-(1-methyl-1H-1,2,4-triazol-3-yl)phenyl)amino)-N-methylpyridazine-3-carboxamide]	–

Second part, the compound before the results:

Compound	TYK2 Degradation (NOMO-1, 10 nM) (TYK2 [2])	TYK2 Degradation (NOMO-1, 100 nM) (TYK2 [2])	further results
CNC(=O)c1nnc(NC(=O)CNC(=O)CCCCCCC(=O)N[C@H](C(=O)N2C[C@H](O)C[C@H]2C(=O)NCc2ccc(-c3scnc3C)cc2)C(C)(C)C)cc1Nc1cccc(-c2ncn(C)n2)c1OC [CPD-038, N1-((S)-1-((2S,4R)-4-hydroxy-2-((4-(4-methylthiazol-5-yl)benzyl)carbamoyl)pyrrolidin-1-yl)-3,3-dimethyl-1-oxobutan-2-yl)-N8-(2-((5-((2-methoxy-3-(1-methyl-1H-1,2,4-triazol-3-yl)phenyl)amino)-6-(methylcarbamoyl)pyridazin-3-yl)amino)-2-oxoethyl)octanediamide]	–	–	Selectivity of TYK2 protein reduction over JAK1, JAK2, and JAK3 (FIG. 1) (JAK1, JAK2, and JAK3): very selective at the reduction protein levels of TYK2 over JAK1, JAK2, and JAK3; also recorded: highly selective at the degradation of TYK2 over JAKT/2/3 proteins; TYK2 Degradation (0.5 μM) (TYK2 [1]): 50%; TYK2 Degradation (5 μM) (TYK2 [1]): 90%; Reduction of TYK2 protein levels over a dose range (FIG. 1) (TYK2 [1]): concentration-dependently reduced the TYK2 proteins levels; also recorded: reduce TYK2 protein levels in a concentration-dependent manner
CNC(=O)c1nnc(NC(=O)CNC(=O)CCCCCCCC(=O)N[C@H](C(=O)N2C[C@H](O)C[C@H]2C(=O)NCc2ccc(-c3scnc3C)cc2)C(C)(C)C)cc1Nc1cccc(-c2ncn(C)n2)c1OC [CPD-039, N1-((S)-1-((2S,4R)-4-hydroxy-2-((4-(4-methylthiazol-5-yl)benzyl)carbamoyl)pyrrolidin-1-yl)-3,3-dimethyl-1-oxobutan-2-yl)-N9-(2-((5-((2-methoxy-3-(1-methyl-1H-1,2,4-triazol-3-yl)phenyl)amino)-6-(methylcarbamoyl)pyridazin-3-yl)amino)-2-oxoethyl)nonanediamide]	–	–	Selectivity of TYK2 protein reduction over JAK1, JAK2, and JAK3 (FIG. 1) (JAK1, JAK2, and JAK3): very selective at the reduction protein levels of TYK2 over JAK1, JAK2, and JAK3; also recorded: highly selective at the degradation of TYK2 over JAKT/2/3 proteins; TYK2 Degradation (0.5 μM) (TYK2 [1]): 60%; TYK2 Degradation (5 μM) (TYK2 [1]): 90%; Reduction of TYK2 protein levels over a dose range (FIG. 1) (TYK2 [1]): concentration-dependently reduced the TYK2 proteins levels; also recorded: reduce TYK2 protein levels in a concentration-dependent manner
CNC(=O)c1nnc(Nc2ccc(C(=O)NCCOCCNc3cccc4c3C(=O)N(C3CCC(=O)NC3=O)C4=O)cn2)cc1Nc1cccc(-c2ncn(C)n2)c1OC (stereo not shown) [CPD-159, 6-((5-((2-(2-((2-(2,6-dioxopiperidin-3-yl)-1,3-dioxoisoindolin-4-yl)amino)ethoxy)ethyl)carbamoyl)pyridin-2-yl)amino)-4-((2-methoxy-3-(1-methyl-1H-1,2,4-triazol-3-yl)phenyl)amino)-N-methylpyridazine-3-carboxamide]	A (A: ≥60% TYK2 degradation)	A (A: ≥60% TYK2 degradation)	–
CNC(=O)c1nnc(Nc2ccc(C#CC3CCN(CCCCC(=O)N[C@H](C(=O)N4C[C@H](O)C[C@H]4C(=O)N[C@@H](C)c4ccc(-c5scnc5C)cc4)C(C)(C)C)CC3)cn2)cc1Nc1cccc(-c2ncn(C)n2)c1OC [CPD-160, 6-((5-((1-(5-(((S)-1-((2S,4R)-4-hydroxy-2-(((S)-1-(4-(4-methylthiazol-5-yl)phenyl)ethyl)carbamoyl)pyrrolidin-1-yl)-3,3-dimethyl-1-oxobutan-2-yl)amino)-5-oxopentyl)piperidin-4-yl)ethynyl)pyridin-2-yl)amino)-4-((2-methoxy-3-(1-methyl-1H-1,2,4-triazol-3-yl)phenyl)amino)-N-methylpyridazine-3-carboxamide]	–	C (C: ≤20% TYK2 degradation)	–
CNC(=O)c1nnc(Nc2ccc(C(=O)NC3CC(CC(=O)N[C@H](C(=O)N4C[C@H](O)C[C@H]4C(=O)N[C@@H](C)c4ccc(-c5scnc5C)cc4)C(C)(C)C)C3)cn2)cc1Nc1cccc(-c2ncn(C)n2)c1OC (stereo partly drawn) [CPD-161, 6-((5-((3-(2-(((S)-1-((2S,4R)-4-hydroxy-2-(((S)-1-(4-(4-methylthiazol-5-yl)phenyl)ethyl)carbamoyl)pyrrolidin-1-yl)-3,3-dimethyl-1-oxobutan-2-yl)amino)-2-oxoethyl)cyclobutyl)carbamoyl)pyridin-2-yl)amino)-4-((2-methoxy-3-(1-methyl-1H-1,2,4-triazol-3-yl)phenyl)amino)-N-methylpyridazine-3-carboxamide]	C (C: ≤20% TYK2 degradation)	A (A: ≥60% TYK2 degradation)	–
CNC(=O)c1nnc(Nc2ccc(CNCCCCCCCC(=O)N[C@H](C(=O)N3C[C@H](O)C[C@H]3C(=O)N[C@@H](C)c3ccc(-c4scnc4C)cc3)C(C)(C)C)cn2)cc1Nc1cccc(-c2ncn(C)n2)c1OC [CPD-162, 6-((5-(((8-(((S)-1-((2S,4R)-4-hydroxy-2-(((S)-1-(4-(4-methylthiazol-5-yl)phenyl)ethyl)carbamoyl)pyrrolidin-1-yl)-3,3-dimethyl-1-oxobutan-2-yl)amino)-8-oxooctyl)amino)methyl)pyridin-2-yl)amino)-4-((2-methoxy-3-(1-methyl-1H-1,2,4-triazol-3-yl)phenyl)amino)-N-methylpyridazine-3-carboxamide]	B (B: <60% TYK2 degradation, and >20% TYK2 degradation)	A (A: ≥60% TYK2 degradation)	–
